The text below walks through data of US9845319B2, “Amide substituted thiazoles as modulators of RORyt” (Janssen Pharmaceutica NV, priority 2014, dated 2017).

One assay addresses T1, full-length human RORγt (Homo sapiens, UniProt P51449).
T1 construct: expressed in transfected cells; host or cells: HEK293T, transiently transfected with pCMV-BD-ROR
T1 sequence (P51449 1-497 isoform P51449-2): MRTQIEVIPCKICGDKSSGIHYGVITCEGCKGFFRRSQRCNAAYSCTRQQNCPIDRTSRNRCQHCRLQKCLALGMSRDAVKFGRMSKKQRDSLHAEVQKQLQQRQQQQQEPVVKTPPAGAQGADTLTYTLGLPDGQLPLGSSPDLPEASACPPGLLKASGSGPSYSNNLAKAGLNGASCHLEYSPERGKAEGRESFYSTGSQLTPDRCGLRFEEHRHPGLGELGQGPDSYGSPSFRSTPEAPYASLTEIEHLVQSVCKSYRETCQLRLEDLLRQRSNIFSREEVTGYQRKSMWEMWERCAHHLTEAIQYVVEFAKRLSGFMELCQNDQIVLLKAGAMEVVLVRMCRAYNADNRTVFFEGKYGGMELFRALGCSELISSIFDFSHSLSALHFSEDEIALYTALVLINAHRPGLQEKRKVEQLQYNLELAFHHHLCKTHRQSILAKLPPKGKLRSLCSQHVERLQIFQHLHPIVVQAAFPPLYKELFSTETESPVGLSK
The experiment in a line: RORγt (full-length human) Reporter Assay, Conditions A. It counts as cell-based. As to conditions: for IC50: HEK293T cells, GAL4-DBD-RORγt, luciferase, read-out: RORγt (FL) Reporter Assay A, IC50; for inhibition at 6 µM: read-out: RORγt (FL) Reporter Assay A, % inhibition @ 6 μM, 6 μM compound; for inhibition at 2 µM: read-out: RORγt (FL) Reporter Assay A, % inhibition (* at 2 μM), 2 μM compound concentration (footnote *). In short, it runs like this:
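Dual-luciferase readout after overnight (16 to 20 hours) treatment: firefly values scaled between DMSO-only and saturating reference-compound controls, then corrected by Renilla. Percent inhibition calculated against DMSO control, with IC50 derived from concentration-response plots.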
A general note: In a reporter assay the amount or activity of a reporter protein is the signal.

Assay [1] has as its target T2, human RORγt ligand binding domain (RORγt LBD) (Homo sapiens, UniProt P51449).
T2 construct: His-tag (N); TurboTEV protease cleavage site (ENLYFQG) (N); made in house; host or cells: E. coli (pHIS1, a modified pET expression vector)
T2 sequence (P51449 with tags, fused parts or gaps): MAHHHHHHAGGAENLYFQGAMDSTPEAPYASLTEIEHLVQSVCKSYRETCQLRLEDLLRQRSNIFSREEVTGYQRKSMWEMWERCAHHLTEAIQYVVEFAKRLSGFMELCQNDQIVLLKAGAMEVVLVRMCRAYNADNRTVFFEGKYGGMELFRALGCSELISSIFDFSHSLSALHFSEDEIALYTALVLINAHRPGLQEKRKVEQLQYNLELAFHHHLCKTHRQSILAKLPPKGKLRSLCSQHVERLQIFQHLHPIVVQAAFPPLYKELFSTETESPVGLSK
The experiment in a line: RORγt ThermoFluor assay. As to conditions: estimated from thermal shift concentration response. Put shortly:
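Thermal shift of RORγt LBD (0.065 mg/mL) with 60 μM 1,8-ANS in 100 mM Hepes pH 7.0, NaCl, GSH, 0.002% Tween-20, heated at 1° C/min. ANS fluorescence tracked versus temperature; ΔTm relative to DMSO wells. Compounds serially diluted 1:2 from 10 mM DMSO stock.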

Assay [2] deals with IL-17 production by CD4 T cells. The experiment in a line: Human Th17 Assay. Format: cell-based. As to conditions: 72 h, read-out: Human Th17 Assay, IC50. As to the method:
The human Th17 assay tests the effect of RORγt modulatory compounds on IL-17 production by CD4 T cells under conditions which favor Th17 differentiation. Total CD4^+ T cells were isolated from the peripheral blood mononuclear cells (PBMC) of healthy donors using a CD4^+ T cell isolation kit II, following the manufacturer's instructions (Miltenyi Biotec). […] 50 μL of compound at titrated concentrations in DMSO were added into each well at final DMSO concentration at 0.2%. Cells were incubated for 1 hour, then 50 μL of Th17 cell differentiation medium was added to each well. The final concentrations of antibodies and cytokines (R&D Systems) in differentiation medium were: 3×10^6/mL anti-CD3/CD28 beads (prepared using human T cell activation/expansion kit, Miltenyi Biotec), 10 μg/mL anti-IL4, 10 μg/mL anti-IFNγ, 10 ng/mL IL1β, 10 ng/mL IL23, 50 ng/mL IL6, 3 ng/mL TGFβ and 20 U/mL IL2. Cells were cultured at 37° C. and 5% CO2 for 3 days. Supernatants were collected and the accumulated IL-17 in culture was measured by using MULTI-SPOT® Cytokine Plate following manufacture's instruction (Meso Scale Discovery). The plate was read using Sector Imager 6000, and IL-17 concentration was extrapolated from the standard curve. The IC50s were determined by GraphPad.

Where [3] appears, read: IL-17 in supernatant, 3 days, human CD4+ T cells.

Read-outs that look alike come from different tables or passages of the source.

As to `CC(C)(Cc1nnc(-c2nc(C(=O)N3CCC(F)CC3)c(-c3cc(C(C)(C)C)cc(C(O)(C(F)(F)F)C(F)(F)F)c3)s2)o1)C(=O)O` [Example 2/2, 3-(5-(5-(3-(tert-Butyl)-5-(1,1,1,3,3,3-hexafluoro-2-hydroxypropan-2-yl)phenyl)-4-(4-fluoropiperidine-1-carbonyl)thiazol-2-yl)-1,3,4-oxadiazol-2-yl)-2,2-dimethylpropanoic acid], at full-length human RORγt, the IC50 amounted to 150 nM and the inhibition at 6 µM worked out at 104%. Further, the Kd in assay [1] was 2 nM. Besides, in assay [2] (setting [3]), the IC50 is 150 nM.
As for `C[C@H](NS(=O)(=O)c1ccc(-c2sc(-c3cc(CC(C)(C)C(=O)O)on3)nc2C(=O)N2CCC(F)(F)CC2)c(C(F)F)c1F)C(F)(F)F` [Example 18, (S)-3-(3-(5-(2-(Difluoromethyl)-3-fluoro-4-(N-(1,1,1-trifluoropropan-2-yl)sulfamoyl)phenyl)-4-(4,4-difluoropiperidine-1-carbonyl)thiazol-2-yl)isoxazol-5-yl)-2,2-dimethylpropanoic acid], on full-length human RORγt, the IC50 stood at 350 nM and the inhibition at 6 µM was determined as 103%. Also, the Kd in assay [1] is 3.7 nM. For the same compound, in assay [2] (setting [3]), the half-maximal inhibitory concentration (IC50) was 410 nM.
On the same counts, the results for `CC[C@H](NS(=O)(=O)c1ccc(-c2sc(-c3noc(CC(C)(C)C(=O)O)n3)nc2C(=O)N2CCC(F)(F)CC2)c(OC(F)(F)F)c1)C(F)(F)F` [Example 10/2, (S)-3-(3-(4-(4,4-Difluoropiperidine-1-carbonyl)-5-(4-(N-(1,1,1-trifluorobutan-2-yl)sulfamoyl)-2-(trifluoromethoxy)phenyl)thiazol-2-yl)-1,2,4-oxadiazol-5-yl)-2,2-dimethylpropanoic acid] are 57 nM, 106%, 0.04 nM and 76 nM.
Turning to `CC[C@H](NS(=O)(=O)c1ccc(-c2sc(-c3cccc(CC(C)(C)C(=O)O)n3)nc2C(=O)N2CCC(F)(F)CC2)c(C(F)F)c1F)C(F)(F)F` [Example 19, (S)-3-(6-(5-(2-(Difluoromethyl)-3-fluoro-4-(N-(1,1,1-trifluorobutan-2-yl)sulfamoyl)phenyl)-4-(4,4-difluoropiperidine-1-carbonyl)thiazol-2-yl)pyridin-2-yl)-2,2-dimethylpropanoic acid], the concentration for half-maximal inhibition (IC50) on full-length human RORγt worked out at 8 nM; in assay [2] (setting [3]), 9 nM. On full-length human RORγt, the inhibition at 2 µM amounted to 99%. For the same compound, the dissociation constant Kd in assay [1] was 0.013 nM.
For `CC[C@H](NS(=O)(=O)c1ccc(-c2sc(-c3nnn[nH]3)nc2C(=O)N2CCCC[C@@H]2C)c(Cl)c1Cl)C(F)(F)F` [Example 15, 2,3-Dichloro-4-(4-((S)-2-methylpiperidine-1-carbonyl)-2-(1H-tetrazol-5-yl)thiazol-5-yl)-N—((S)-1,1,1-trifluorobutan-2-yl)benzenesulfonamide], at full-length human RORγt, the concentration for half-maximal inhibition (IC50) worked out at 1900 nM and the inhibition at 6 µM amounted to 59%. Further, the Kd in assay [1] is 0.64 nM. The half-inhibitory concentration (IC50) in assay [2] (setting [3]) was found to be 6000 nM.
`Cc1c(S(=O)(=O)N[C@@H](C)C(F)(F)F)ccc(-c2sc(-c3nnc(C(C)(C)O)o3)nc2C(=O)N2CCC(F)(F)CC2)c1Cl` [Example 27, 3-Chloro-4-(4-(4,4-difluoropiperidine-1-carbonyl)-2-(5-(2-hydroxypropan-2-yl)-1,3,4-oxadiazol-2-yl)thiazol-5-yl)-2-methyl-N—((S)-1,1,1-trifluoropropan-2-yl)benzenesulfonamide]: on full-length human RORγt, the IC50 came out at 30 nM and the inhibition at 6 µM amounted to 107%. Moreover, in assay [1], the equilibrium dissociation constant (Kd) is 0.38 nM. Besides, the IC50 in assay [2] (setting [3]) was 9 nM.
Turning to `C[C@H](NS(=O)(=O)c1ccc(-c2sc(-c3nnc(C(C)(C)O)o3)nc2C(=O)N2CCC(F)(F)CC2)c(Cl)c1Cl)C(F)(F)F` [Example 4/4, (S)-2,3-Dichloro-4-(4-(4,4-difluoropiperidine-1-carbonyl)-2-(5-(2-hydroxypropan-2-yl)-1,3,4-oxadiazol-2-yl)thiazol-5-yl)-N-(1,1,1-trifluoropropan-2-yl)benzenesulfonamide], the IC50 in assay [2] (Homo sapiens, CD4+ T) is 15 nM.
Turning to `CC[C@H](NS(=O)(=O)c1ccc(-c2sc(-c3cccc(CC(C)(C)C(=O)O)n3)nc2C(=O)N2CC(F)(F)C[C@@H]2C)c(C(F)F)c1F)C(F)(F)F` [Example 19/1, 3-(6-(4-((S)-4,4-Difluoro-2-methylpyrrolidine-1-carbonyl)-5-(2-(difluoromethyl)-3-fluoro-4-(N—((S)-1,1,1-trifluorobutan-2-yl)sulfamoyl)phenyl)thiazol-2-yl)pyridin-2-yl)-2,2-dimethylpropanoic acid], at full-length human RORγt, the IC50 came to 10 nM and the inhibition at 2 µM turned out to be 98%. Further, the dissociation constant Kd in assay [1] was 0.023 nM.
For `C[C@H](NS(=O)(=O)c1ccc(-c2sc(-c3nnc(C(C)(C)O)o3)nc2C(=O)N2CCCC[C@@H]2C)c(Cl)c1Cl)C(F)(F)F` [Example 4/3, 2,3-Dichloro-4-(2-(5-(2-hydroxypropan-2-yl)-1,3,4-oxadiazol-2-yl)-4-((S)-2-methylpiperidine-1-carbonyl)thiazol-5-yl)-N—((S)-1,1,1-trifluoropropan-2-yl)benzenesulfonamide], at full-length human RORγt, the IC50 stood at 26 nM and the inhibition at 6 µM was 105%. For the same compound, the dissociation constant Kd in assay [1] was 0.38 nM.
Consider `CCN(CC)C(=O)c1nc(-c2cc(C(C)(C)O)ccn2)sc1-c1ccc(S(=O)(=O)N[C@@H](C)C(F)(F)F)c(Cl)c1Cl` [Example 17/1, (S)-5-(2,3-Dichloro-4-(N-(1,1,1-trifluoropropan-2-yl)sulfamoyl)phenyl)-N,N-diethyl-2-(4-(2-hydroxypropan-2-yl)pyridin-2-yl)thiazole-4-carboxamide], for which the inhibition at 0.22 µM at full-length human RORγt (0.22 μM compound concentration (footnote ***), read-out: RORγt (FL) Reporter Assay A, % inhibition (*** at 0.22 μM)) was found to be 91%. Besides, the concentration for half-maximal inhibition (IC50) on full-length human RORγt is 27 nM. For the same compound, in assay [1], the equilibrium dissociation constant (Kd) is 7.8 nM.
As for `CCN(CC)C(=O)c1nc(-c2nnc(C(N)=O)o2)sc1-c1ccc(S(=O)(=O)N[C@@H](C)C(F)(F)F)c(Cl)c1Cl` [Example 5/1, (S)-5-(5-(2,3-Dichloro-4-(N-(1,1,1-trifluoropropan-2-yl)sulfamoyl)phenyl)-4-(diethylcarbamoyl)thiazol-2-yl)-1,3,4-oxadiazole-2-carboxamide], at full-length human RORγt, the IC50 came out at 280 nM and the inhibition at 6 µM turned out to be 105%. Besides, the dissociation constant Kd in assay [1] was 120 nM.
On the same counts, the results for `C[C@H](NS(=O)(=O)c1ccc(-c2sc(-c3nnc(C(C)(C)O)o3)nc2C(=O)N2CCC(F)(F)CC2)c(C(F)F)c1Cl)C(F)(F)F` [Example 6/14, (S)-2-Chloro-3-(difluoromethyl)-4-(4-(4,4-difluoropiperidine-1-carbonyl)-2-(5-(2-hydroxypropan-2-yl)-1,3,4-oxadiazol-2-yl)thiazol-5-yl)-N-(1,1,1-trifluoropropan-2-yl)benzenesulfonamide] are 73 nM, 105% and 3.3 nM.

A word on the IC50: it is the concentration needed to halve the response being measured. Broadly, the inhibition is the change of the read-out against control, counted positive when it falls. As a reminder, the Kd is the concentration at which binding is half-saturated.
